Calls of active or inactive are those of the source. How the calls were made is not given here.
Test system: IMR-90 human lung fibroblast viability counter screen
Test: cytotoxicity in human IMR-90 lung fibroblasts – cell-based, IC50, cytotoxicity control, dose response (AID 449725);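 further: 48 hour compound exposure before the viability read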

O=C1c2ccccc2S(=O)N1c1ccc(Cl)cc1 (stereo not drawn)
IC50: > 25 µM (inactive)

O=C(Nc1cc(Cl)ccc1C(=O)O)c1ccncc1
IC50: > 25 µM (inactive)

O=C(Cn1sc2ccccc2c1=O)Nc1ccccc1I
IC50: > 25 µM (inactive)

COc1cc(C(=O)Nc2cc(Cl)ccc2C(=O)O)cc(OC)c1OC
IC50: > 25 µM (inactive)

O=C(Cn1sc2ccccc2c1=O)Nc1ccc(F)cc1
IC50: 6.87 µM

Cn1sc(=O)c2ccccc21
IC50: 18 µM

Cn1c2ccccc2c(=O)n1-c1ccccc1
IC50: > 25 µM (inactive)

COc1ccc(C(=O)Nc2cc(Br)ccc2C(=O)O)cc1
IC50: > 25 µM (inactive)

COc1ccc(C(=O)Nc2ccccc2C(=O)O)cc1
IC50: > 25 µM (inactive)

N#Cc1ccc(NC(=O)Cn2sc3ccccc3c2=O)cc1
IC50: 19.7 µM

CC(=O)Nc1cc(Cl)ccc1C(=O)O
IC50: > 25 µM (inactive)

O=C(Nc1cc(Cl)ccc1C(=O)O)c1cocn1
IC50: > 25 µM (inactive)

O=C(Nc1cc(Cl)ccc1C(=O)O)c1ccc(Cc2ccccc2)cc1
IC50: > 25 µM (inactive)

COc1ccccc1-n1sc2ccccc2c1=O
IC50: 6.29 µM

COc1ccc(C(=O)Nc2cc(Cl)ccc2C(N)=O)cc1
IC50: > 25 µM (inactive)

CCCc1ccc(C(=O)Nc2cc(Cl)ccc2C(=O)O)cc1
IC50: > 25 µM (inactive)

O=c1c2cc([N+](=O)[O-])ccc2sn1-c1ccccc1
IC50: 10.2 µM

COc1ccc(NC(=O)c2ccccc2SCc2ccccc2)cc1
IC50: > 25 µM (inactive)

COc1ccc(C(=O)Nc2cc(C(=O)O)ccc2Cl)cc1
IC50: > 25 µM (inactive)

COc1ccc(N2C(=O)c3ccc(Cl)cc3C2=O)cc1
IC50: > 25 µM (inactive)

COc1ccc(C(=O)Nc2ccccc2-c2nn[nH]n2)cc1
IC50: > 25 µM (inactive)

Cc1ccccc1NC(=O)Cn1sc2ccccc2c1=O
IC50: 7.37 µM

CC(C)c1ccc(C(=O)Nc2cc(Cl)ccc2C(=O)O)cc1
IC50: > 25 µM (inactive)

COc1ccc(C(=O)Nc2ccc(Cl)cc2C(=O)O)cc1
IC50: > 25 µM (inactive)

CCOC(=O)Cn1sc2ccccc2c1=O
IC50: 6.35 µM

COc1ccc(C(=O)NC(C(=O)O)c2ccccc2)cc1 (stereo not drawn)
IC50: > 25 µM (inactive)

O=C(c1ccccc1)n1sc2ccccc2c1=O
IC50: 17 µM

CCc1ccc(C(=O)Nc2cc(Cl)ccc2C(=O)OC)cc1
IC50: > 25 µM (inactive)

CCOC(=O)c1ccncc1NC(=O)c1ccc(OC)cc1
IC50: > 25 µM (inactive)

Cc1ccccc1N1Cc2ccccc2C1=O
IC50: > 25 µM (inactive)

O=C(O)c1ccc(Cl)cc1NC(=O)c1coc2ccccc12
IC50: > 25 µM (inactive)

COc1ccc(C(=O)Nc2cc(I)ccc2C(=O)O)cc1
IC50: > 25 µM (inactive)

O=C(Cn1sc2ccccc2c1=O)Nc1ccc(C(F)(F)F)cc1
IC50: 13.9 µM

O=c1c2ccc(F)cc2sn1Cc1ccccc1
IC50: > 25 µM (inactive)

O=C(Cn1sc2ccccc2c1=O)Nc1cccc(Br)c1
IC50: > 25 µM (inactive)

O=C(NCc1ccccc1)n1sc2ccccc2c1=O
IC50: > 25 µM (inactive)

COc1ccc(S(=O)(=O)Nc2cc(Cl)ccc2C(=O)O)cc1
IC50: > 25 µM (inactive)

O=C(Cn1sc2ccccc2c1=O)N1CCCCC1
IC50: 16.5 µM

CC(C)(C)c1ccc(C(=O)Nc2cc(Cl)c(F)cc2C(=O)O)cc1
IC50: > 25 µM (inactive)

O=C(Nc1cc(Cl)ccc1C(=O)O)c1ccc2c(c1)CCCC2
IC50: > 25 µM (inactive)

COc1ccc(C(=O)Nc2cc(Cl)c(Br)cc2C(=O)O)cc1
IC50: > 25 µM (inactive)

O=C(Cn1sc2ccccc2c1=O)Nc1ccccc1
IC50: 6.93 µM

O=c1c(Br)csn1-c1ccc(Br)cc1
IC50: > 25 µM (inactive)

O=c1c2ccc(Br)cc2sn1-c1ccccc1
IC50: > 25 µM (inactive)

O=c1c2ccccc2sn1-c1cccc(Cl)c1
IC50: > 25 µM (inactive)

O=C(Nc1cc(Cl)ccc1C(=O)O)c1ccoc1
IC50: > 25 µM (inactive)

CC(C)(C)c1ccc(C(=O)Nc2cc(Cl)ccc2-c2nn[nH]n2)cc1
IC50: > 25 µM (inactive)

CC(C)(C)c1ccc(C(=O)N2CCC(=O)c3ccc(Cl)cc32)cc1
IC50: > 25 µM (inactive)

COc1ccc(C(=O)Nc2cc(Cl)ccc2-c2nn[nH]n2)cc1
IC50: > 25 µM (inactive)

O=C1c2cccc(Br)c2SCN1c1ccccc1
IC50: > 25 µM (inactive)

COc1ccc(C(=O)Nc2cc(Cl)ccc2C(=O)O)cc1OC
IC50: > 25 µM (inactive)

CCc1ccc(C(=O)Nc2cc(Br)ccc2C(=O)O)cc1
IC50: > 25 µM (inactive)

CCOc1ccc(C(=O)Nc2cc(Cl)ccc2C(=O)O)cc1
IC50: > 25 µM (inactive)

CC(C)(C)c1ccc(C(=O)Nc2cc(Cl)ccc2O)cc1
IC50: > 25 µM (inactive)

OB1OCc2cc(C(F)(F)F)ccc21
IC50: > 25 µM (inactive)

COc1ccc(C(=O)Nc2ccccc2C(=O)O)cc1Cl
IC50: > 25 µM (inactive)

O=C(Cn1sc2ccccc2c1=O)Nc1cccc(C(F)(F)F)c1
IC50: > 25 µM (inactive)

COc1cccc(CC(=O)Nc2cc(Cl)ccc2C(=O)O)c1
IC50: > 25 µM (inactive)

O=c1c2cc(Br)ccc2sn1-c1ccccc1
IC50: > 25 µM (inactive)

Cc1cc(C(C#N)c2ccc(Cl)cc2)c(Cl)cc1NC(=O)c1cc(I)cc(I)c1O (stereo not drawn)
IC50: > 25 µM (inactive)

COc1ccc(C(=O)Nc2cc(Cl)ccc2S(N)(=O)=O)cc1
IC50: > 25 µM (inactive)

COc1ccc(-n2sc3ccccc3c2=O)cc1
IC50: 5.54 µM

O=c1c2cc(F)ccc2sn1-c1ccccc1Cl
IC50: 6.16 µM

COc1ccc(C(=O)Nc2cc(F)cc(F)c2O)cc1
IC50: > 25 µM (inactive)

O=C(Cn1sc2cc(F)ccc2c1=O)Nc1ccccc1
IC50: 14.8 µM

COc1ccc(C(=O)N2CCC(=O)c3ccc(Cl)cc32)cc1
IC50: > 25 µM (inactive)

Cc1cccc(C(=O)Nc2cc(Cl)ccc2C(=O)O)c1
IC50: > 25 µM (inactive)

O=c1c2ccccc2sn1-c1cccc(F)c1
IC50: 7.9 µM

COc1ccc(C(=O)NCC(=O)O)cc1
IC50: > 25 µM (inactive)

COc1ccc(NC(=O)c2ccccc2C(=O)O)cc1
IC50: > 25 µM (inactive)

O=C(Cn1sc2ccccc2c1=O)Nc1ccc(I)cc1
IC50: > 25 µM (inactive)

O=c1c2ccccc2sn1-c1ccccc1Cl
IC50: 4.81 µM

COc1cccc(NC(=O)Cn2sc3ccccc3c2=O)c1
IC50: 8.77 µM

Cc1ccc(C(=O)Nc2cc(Cl)ccc2C(=O)O)cc1C
IC50: > 25 µM (inactive)

O=C(Cn1sc2ccccc2c1=O)Nc1ccccc1Br
IC50: > 25 µM (inactive)

O=C(Nc1cc(Cl)ccc1C(=O)O)c1ccc(OC(F)(F)F)cc1
IC50: > 25 µM (inactive)

Cc1ccccc1-n1sc2cc(F)ccc2c1=O
IC50: 5.6 µM

O=C(Cn1sc2ccccc2c1=O)N1CCOCC1
IC50: > 25 µM (inactive)

O=C(Cn1sc2ccccc2c1=O)Nc1ccc(Cl)cc1
IC50: > 25 µM (inactive)

O=C(Nc1cc(Cl)ccc1C(=O)O)c1ccc(C2CC2)cc1
IC50: > 25 µM (inactive)

O=C(Nc1cc(Cl)ccc1C(=O)O)c1ccc(-c2cccs2)cc1
IC50: > 25 µM (inactive)

O=C(Nc1cc(Cl)ccc1C(=O)O)c1ccc(-c2ccccc2)cc1
IC50: > 25 µM (inactive)

O=C(Nc1cc(Cl)ccc1C(=O)O)c1ccc(C2CCCC2)cc1
IC50: > 25 µM (inactive)

COc1cccc(C(=O)Nc2cc(Cl)ccc2C(=O)O)c1
IC50: > 25 µM (inactive)

O=c1c2ccccc2sn1-c1ccccc1
IC50: 1.45 µM

O=C(CCn1sc2ccccc2c1=O)Nc1ccccc1
IC50: 9.92 µM

O=C(Nc1ccccc1)n1sc2ccccc2c1=O
IC50: 1.66 µM

COc1ccccc1C(=O)Nc1cc(Cl)ccc1C(=O)O
IC50: > 25 µM (inactive)

O=c1c2ccccc2sn1-c1ccccc1F
IC50: 5.4 µM

O=C(Cn1sc2ccccc2c1=O)Nc1ccccc1C(F)(F)F
IC50: > 25 µM (inactive)

CC(C)(C)c1ccc(C(=O)Nc2cc(Cl)c(Br)cc2C(=O)O)cc1
IC50: > 25 µM (inactive)

CC(C)(C)c1ccc(C(=O)Nc2c(C(=O)O)ccc(Cl)c2Cl)cc1
IC50: > 25 µM (inactive)

O=C1c2cc(Br)ccc2S(=O)N1c1ccccc1 (stereo not drawn)
IC50: > 25 µM (inactive)

COc1ccc(NC(=O)Cn2sc3ccccc3c2=O)cc1
IC50: 6.49 µM

COc1ccc(CC(=O)Nc2cc(Cl)ccc2C(=O)O)cc1
IC50: > 25 µM (inactive)

O=C(Nc1cc(Cl)ccc1C(=O)O)c1ccc2ccccc2c1
IC50: > 25 µM (inactive)

O=C(O)c1ccc(Cl)cc1NC(=O)C1CCOCC1
IC50: > 25 µM (inactive)

COc1ccc(NC(=O)Nc2ccccc2C(=O)O)cc1
IC50: > 25 µM (inactive)

COc1ccccc1NC(=O)Cn1sc2ccccc2c1=O
IC50: 12.3 µM

Cc1ccc(-n2sc3ccccc3c2=O)cc1
IC50: 18.3 µM

CCCCCCC(=O)Nc1cc(Cl)ccc1C(=O)O
IC50: > 25 µM (inactive)

COc1ccc(C(=O)NC(CC(=O)O)c2cccc(Cl)c2)cc1 (stereo not drawn)
IC50: > 25 µM (inactive)

CCCCCC(=O)Nc1cc(Cl)ccc1C(=O)O
IC50: > 25 µM (inactive)

COc1ccc(-c2cc3ccccc3[nH]2)cc1
IC50: > 25 µM (inactive)

COc1ccc2sn(-c3ccccc3)c(=O)c2c1
IC50: > 25 µM (inactive)

CC1(c2ccc(C(=O)Nc3cc(Cl)ccc3C(=O)O)cc2)CC1
IC50: > 25 µM (inactive)

O=C(Nc1cc(Cl)ccc1C(=O)O)c1ccsc1
IC50: > 25 µM (inactive)

Cn1sc2ccccc2c1=O
IC50: 2.32 µM

COc1ccc2c(c1)CN(c1cc(Cl)ccc1C(=O)O)C2=O
IC50: > 25 µM (inactive)

O=C(Cn1sc2ccccc2c1=O)Nc1cccc(F)c1
IC50: > 25 µM (inactive)

COc1ccc2c(=O)n(-c3ccccc3)sc2c1
IC50: > 25 µM (inactive)

COc1ccc(C(=O)Nc2cc(Cl)ccc2C(=O)O)cn1
IC50: > 25 µM (inactive)

O=C(Nc1cc(Cl)ccc1C(=O)O)c1ccc(I)cc1
IC50: > 25 µM (inactive)

Cc1ccc(C(=O)Nc2cc(Cl)ccc2C(=O)O)c(C)c1
IC50: > 25 µM (inactive)

O=C(Cn1sc2ccccc2c1=O)Nc1ccc(Br)cc1
IC50: > 25 µM (inactive)

COc1ccc(C(=O)Nc2cc(OC)ccc2C(=O)O)cc1
IC50: > 25 µM (inactive)

O=c1c2cc(F)ccc2sn1-c1ccccc1
IC50: > 25 µM (inactive)

C=C(C)c1ccc(C(=O)Nc2cc(Cl)ccc2C(=O)O)cc1
IC50: > 25 µM (inactive)

— PubChem BioAssay AID449725 (University of Pittsburgh Molecular Library Screening Center, 2010)
